{"source": "ChEMBL document CHEMBL3045626", "about": "“Interaction of 2-(4-Methylphenoxy)triethylamine and Related Compounds with Its Herbicide Target in the Carotenoid Biosynthetic Pathway” (J Pestic Sci, 1998)", "key": {"[1]": {"target": "T1, Lycopene beta-cyclase (Pantoea ananas) (UniProt P21687)", "T1 sequence (whole entry)": "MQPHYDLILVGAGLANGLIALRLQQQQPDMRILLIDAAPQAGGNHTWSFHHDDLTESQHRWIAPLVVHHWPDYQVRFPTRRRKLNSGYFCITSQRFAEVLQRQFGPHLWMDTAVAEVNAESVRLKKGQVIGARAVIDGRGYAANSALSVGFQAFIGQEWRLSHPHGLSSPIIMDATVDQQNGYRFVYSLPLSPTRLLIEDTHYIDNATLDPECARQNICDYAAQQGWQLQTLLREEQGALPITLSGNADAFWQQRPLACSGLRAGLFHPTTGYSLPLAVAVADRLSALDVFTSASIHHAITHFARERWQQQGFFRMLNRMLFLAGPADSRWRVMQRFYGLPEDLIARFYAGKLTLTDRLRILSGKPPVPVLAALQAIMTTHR", "test": "Inhibition of Pantoea ananatis lycopene cyclase assessed as residual enzyme activity at 0.5 mM"}, "[2]": {"target": "T1, Lycopene beta-cyclase (Pantoea ananas)", "test": "Inhibition of Pantoea ananatis lycopene cyclase assessed as residual enzyme activity at 10 mM"}, "Lycopene beta-cyclase": {"target": "T2, Lycopene beta-cyclase (Pantoea ananas, UniProt P21687)", "T2 sequence (P21687 whole entry)": "T1 sequence (whole entry)", "test": "Inhibition of Pantoea ananatis lycopene cyclase", "settings": "read-out: I50"}}}
{"compound": "O=CC(=O)c1ccccc1", "values": [{"measurement": "Activity", "setting": "[1]", "result": 92, "unit": "%"}]}
{"compound": "Cc1cc(OC(=O)N2CCCCC2)c(C(C)C)cc1[N+](C)(C)C", "values": [{"measurement": "Activity", "setting": "[2]", "result": 36, "unit": "%"}]}
{"compound": "NC(=O)CI", "values": [{"measurement": "Activity", "setting": "[1]", "result": 87, "unit": "%"}]}
{"compound": "CCN1C(=O)C=CC1=O", "values": [{"measurement": "Activity", "setting": "[1]", "result": 83, "unit": "%"}]}
{"compound": "CCN(CC)CCOc1ccc(C)cc1", "values": [{"measurement": "IC50", "setting": "Lycopene beta-cyclase", "result": 12, "unit": "µM"}]}
{"compound": "CN1CCC[C@H]1c1cccnc1", "note": "[NICOTINE]", "values": [{"measurement": "IC50", "setting": "Lycopene beta-cyclase", "result": 4.8, "unit": "µM"}, {"measurement": "Activity", "setting": "[2]", "result": 64, "unit": "%"}]}
{"compound": "CC(=O)C(C)=O", "values": [{"measurement": "Activity", "setting": "[1]", "result": 90, "unit": "%"}]}
